Read-outs that look alike come from different tables or passages of the source.
Tests used:
[1] = tested on: K562 (human chronic myeloblastic leukemia); experiment: In vitro cytotoxic activity, Calcein AM, three days; format: cell-based; conditions: read-out: K-562 IC50
Experimental: (§1) We have been using the following cell lines: HELA (human cervical carcinoma), MCF7 (human breast adenocarcinoma), NIH 3T3 (mouse fibroblasts), HOS (human osteogenic sarcoma), HL 60 (human promyelocytic leukemia), G 361 (human malignant melanoma), K562 (human chronic myeloblastic leukemia), CEM (human lymphoblastoid leukaemia). Tested drugs were added to the cell cultures in six different concentration and kept at 37° C. and 5% CO2 for three days. All cell lines were grown in DMBM medium (Gibco BRL) supplemented with 10% (v/v) fetal bovine serum and L-glutamine and maintained at 37° C. in a humidified atmosphere with 5% CO2. 10^4 cells were seeded into each well of 96 well plate, allowed to stabilize for at least 2 h and then tested compounds were added at various concentrations ranging from 200 to 0.2 μM in triplicates. Three days after drug addition Calcein AM solution (Molecular Probes) was added and let to enter the cells for 1 hour. Fluorescence of viable cells was quantified employing Fluoroskan Ascent (Microsystems).

[2] = tested on: MCF7 (human breast adenocarcinoma); experiment: as above; format: cell-based
Experimental: as §1

[3] = target: T1, CDK1 (p34^cdc2, cyclin B) (Homo sapiens, UniProt P06493); experiment: CDK inhibition assay, p34^cdc2 kinase, histone H1 phosphorylation; format: biochemical; conditions: 15 μM ATP, histone H1, 30° C.
T1 construct: made in house; host or cells: Sf9 insect cells (baculovirus co-infection)
Experimental: The controls contain suitable dilutions of DMSO.
2-glycerolphosphate, 1 mM NaF, 1 mM DTT

[4] = target: CDK2 (p33^cdk2, cyclin E) (Homo sapiens, UniProt P24941); experiment: CDK inhibition assay, p33^cdk2 kinase, histone H1 phosphorylation;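 further: Baculovirus-expressed kinase/cyclin complex from Sf9 cell extract, 10 min at 30 °C, phosphoproteins separated by SDS gel and quantified by image analysis, activity relative to DMSO control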
Experimental: Cyclin-dependent kinases (p34^cdc2, p33^cdk2) and cyclins (cyclin B, E) are produced in Sf9 insect cells coinfected with appropriate baculoviral constructs. The cells are harvested 68-72 hrs post infection in lysis buffer for 30 min on ice and the soluble fraction is recovered by centrifugation at 14.000 g for 10 min. The protein extract is stored at −80° C.
Lysis buffer: 50mM Tris pH 7.4, 150mM NaCl, 5 mM EDTA, 20 mM NaF, 1% Tween, 1 mM DTT, 0.1 mM PMSF, leupeptine, aprotonine.
To carry out experiments on kinetics under linear conditions, the final point test system for kinase activity measurement is used. The kinase is added to reaction mixture in such a way as to obtain linear activity with respect to the concentration of enzyme and with respect to time.
Kinase activity is determined at 30° C. in the kinase buffer.
Tested compounds are usually dissolved to 100 mM solutions in DMSO, final concentration of DMSO in reaction mixture never exceeds 1%. The controls contain suitable dilutions of DMSO.
After 10 min, addition 3×SDS sample buffer stops the incubations. Phosphorylated proteins are separated electrophoretically using 10% SDS polyacrylamide gel. The measurement of kinase activity is done using digital image analysis.
The kinase activity is expressed as a percentage of maximum activity, the apparent inhibition constants are determined by graphic analysis.
Kinase buffer: 50 mM Hepes pH 7.4, 10 mM MgCl2, 5 mM EGTA, 10 mM

T1 sequence (P06493 whole entry, species assumed): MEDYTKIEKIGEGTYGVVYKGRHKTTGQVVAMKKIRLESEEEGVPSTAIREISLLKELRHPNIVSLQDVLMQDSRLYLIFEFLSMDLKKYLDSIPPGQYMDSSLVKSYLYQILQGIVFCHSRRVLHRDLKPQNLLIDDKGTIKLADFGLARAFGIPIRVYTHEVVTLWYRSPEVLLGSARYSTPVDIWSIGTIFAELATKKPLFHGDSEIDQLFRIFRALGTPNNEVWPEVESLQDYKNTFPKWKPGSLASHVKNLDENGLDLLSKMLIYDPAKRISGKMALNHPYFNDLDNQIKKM
T1 sequence (P14635 whole entry partner, species assumed): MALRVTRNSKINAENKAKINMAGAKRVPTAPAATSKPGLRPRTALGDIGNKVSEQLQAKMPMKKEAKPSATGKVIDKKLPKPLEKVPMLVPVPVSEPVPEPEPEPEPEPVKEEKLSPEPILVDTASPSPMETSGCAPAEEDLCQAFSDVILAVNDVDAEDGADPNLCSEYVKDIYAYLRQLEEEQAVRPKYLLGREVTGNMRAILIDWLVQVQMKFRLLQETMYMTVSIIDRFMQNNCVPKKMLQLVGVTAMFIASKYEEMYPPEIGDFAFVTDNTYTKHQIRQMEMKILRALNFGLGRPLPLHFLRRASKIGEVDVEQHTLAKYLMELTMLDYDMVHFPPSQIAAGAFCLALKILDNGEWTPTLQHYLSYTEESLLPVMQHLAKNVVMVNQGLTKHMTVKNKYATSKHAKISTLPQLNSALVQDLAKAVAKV

Row | Structure (SMILES) | IC50 [1] | IC50 [2] | IC50 ([1]; Homo sapiens, K562, 72 h) | IC50 ([2]; Homo sapiens, MCF7, 72 h) | IC50 [3] | IC50 [4]
1 | COc1cccc(CNc2ncnc3c(C(C)C)n[nH]c23)c1O | 0.8 µM | 0.6 µM |  |  |  | 
2 | COc1ccc(CNc2ncnc3c(C(C)C)n[nH]c23)c(O)c1 | 0.5 µM | 0.2 µM |  |  |  | 
3 | COc1ccc(O)c(CNc2ncnc3c(C(C)C)n[nH]c23)c1 | 1.2 µM | 0.9 µM |  |  |  | 
4 | CC(C)c1n[nH]c2c(NCc3ccccc3N)ncnc12 [2-aminobenzylamino / isopropyl] | 2.1 µM | 0.8 µM |  |  |  | 
5 | CCc1n[nH]c2c(NCc3ccccc3Br)ncnc12 [2-bromobenzylamino / ethyl] | 60 µM | 54 µM |  |  |  | 
6 | CC(C)c1n[nH]c2c(NCc3ccccc3Br)ncnc12 [2-bromobenzylamino / isopropyl, 7-(2-bromobenzyl)amino-3-isopropylpyrazolo[4,3-d]pyrimidine] |  |  | 57 µM | 42 µM | 7 µM | 9 µM
7 | Cc1n[nH]c2c(NCc3ccccc3Br)ncnc12 [2-bromobenzylamino / methyl] | 68 µM | 56 µM |  |  |  | 
8 | CCc1n[nH]c2c(NCc3ccccc3Cl)ncnc12 [2-chlorobenzylamino / ethyl] |  |  |  |  | 12 µM | 12 µM
9 | CCc1n[nH]c2c(NCc3ccccc3O)ncnc12 [2-hydroxybenzylamino / ethyl] |  |  | 51 µM | 63 µM | 6.2 µM | 7 µM
10 | CC(C)c1n[nH]c2c(NCc3ccccc3O)ncnc12 [2-hydroxybenzylamino / isopropyl, 7-(2-hydroxybenzyl)amino-3-isopropylpyrazolo[4,3-d]pyrimidine] |  |  | 50 µM | 63 µM | 0.4 µM | 0.27 µM
11 | Cc1n[nH]c2c(NCc3ccccc3O)ncnc12 [2-hydroxybenzylamino / methyl] |  |  | 55 µM | 67 µM | 4 µM | 5.2 µM
12 | CCc1n[nH]c2c(NCc3ccccc3C)ncnc12 [2-methylbenzylamino / ethyl] |  |  |  |  | 15 µM | 14 µM
13 | Cc1ccccc1CNc1ncnc2c(C)n[nH]c12 [2-methylbenzylamino / methyl] |  |  |  |  | 18 µM | 17 µM
14 | CCc1n[nH]c2c(Nc3ccc(Cl)c(N)c3)ncnc12 [3-amino-4-chloroanilino / ethyl] |  |  |  |  | 23 µM | 22 µM
15 | CC(C)c1n[nH]c2c(Nc3ccc(Cl)c(N)c3)ncnc12 [3-amino-4-chloroanilino / isopropyl] |  |  | 0.3 µM | 0.2 µM | 2.9 µM | 3 µM
16 | Cc1n[nH]c2c(Nc3ccc(Cl)c(N)c3)ncnc12 [3-amino-4-chloroanilino / methyl] |  |  |  |  | 27 µM | 28 µM
17 | CCc1n[nH]c2c(Nc3ccc(Cl)c(C(=O)O)c3)ncnc12 [3-carboxy-4-chloroanilino / ethyl] |  |  |  |  | 38 µM | 40 µM
18 | Cc1n[nH]c2c(Nc3ccc(Cl)c(C(=O)O)c3)ncnc12 [3-carboxy-4-chloroanilino / methyl] |  |  |  |  | 24 µM | 29 µM
19 | CCc1n[nH]c2c(Nc3ccc(O)c(C(=O)O)c3)ncnc12 [3-carboxy-4-hydroxyanilino / ethyl] |  |  |  |  | 24 µM | 22 µM
20 | CC(C)c1n[nH]c2c(Nc3ccc(O)c(C(=O)O)c3)ncnc12 [3-carboxy-4-hydroxyanilino / isopropyl] |  |  | 25 µM | 12 µM | 3.1 µM | 4.2 µM

Row | Structure (SMILES) | IC50 [1] | IC50 [2] | IC50 ([1]; Homo sapiens, K562, 72 h) | IC50 ([2]; Homo sapiens, MCF7, 72 h) | IC50 [3] | IC50 [4]
21 | Cc1n[nH]c2c(Nc3ccc(O)c(C(=O)O)c3)ncnc12 [3-carboxy-4-hydroxyanilino / methyl] |  |  |  |  | 34 µM | 40 µM
22 | CCc1n[nH]c2c(Nc3ccc(N)c(Cl)c3)ncnc12 [3-chloro-4-aminoanilino / ethyl] |  |  |  |  | 35 µM | 28 µM
23 | CC(C)c1n[nH]c2c(Nc3ccc(N)c(Cl)c3)ncnc12 [3-chloro-4-aminoanilino / isopropyl] |  |  | 13 µM | 12 µM | 2.9 µM | 3 µM
24 | CCc1n[nH]c2c(Nc3ccc(C(=O)O)c(Cl)c3)ncnc12 [3-chloro-4-carboxyanilino / ethyl] |  |  |  |  | 36 µM | 32 µM
25 | CC(C)c1n[nH]c2c(Nc3ccc(C(=O)O)c(Cl)c3)ncnc12 [3-chloro-4-carboxyanilino / isopropyl] |  |  | 69 µM | 46 µM | 2.5 µM | 2.8 µM
26 | Cc1n[nH]c2c(Nc3ccc(C(=O)O)c(Cl)c3)ncnc12 [3-chloro-4-carboxyanilino / methyl] |  |  |  |  | 25 µM | 28 µM
27 | CCc1n[nH]c2c(Nc3cc(N)cc(Cl)c3)ncnc12 [3-chloro-5-aminoanilino / ethyl] |  |  |  |  | 20 µM | 15.5 µM
28 | Cc1n[nH]c2c(Nc3cc(N)cc(Cl)c3)ncnc12 [3-chloro-5-aminoanilino / methyl] |  |  |  |  | 19 µM | 24 µM
29 | CCc1n[nH]c2c(NCc3cccc(Cl)c3)ncnc12 [3-chlorobenzylamino / ethyl] |  |  |  |  | 9.7 µM | 10.2 µM
30 | Cc1n[nH]c2c(NCc3cccc(Cl)c3)ncnc12 [3-chlorobenzylamino / methyl] |  |  |  |  | 8.8 µM | 9.4 µM
31 | CCc1n[nH]c2c(NCc3ccc(OC)c(O)c3)ncnc12 [3-hydroxy-4-methoxybenzylamino / ethyl] | 72 µM | 52 µM |  |  |  | 
32 | COc1ccc(CNc2ncnc3c(C)n[nH]c23)cc1O [3-hydroxy-4-methoxybenzylamino / methyl] | 79 µM | 58 µM |  |  |  | 
33 | CCc1n[nH]c2c(NCc3cccc(C)c3)ncnc12 [3-methylbenzylamino / ethyl] |  |  |  |  | 18 µM | 17 µM
34 | Cc1cccc(CNc2ncnc3c(C)n[nH]c23)c1 [3-methylbenzylamino / methyl] |  |  |  |  | 28 µM | 31 µM
35 | CCc1n[nH]c2c(NC3CCC(N)CC3)ncnc12 (stereo not drawn) [4-aminocyclohexylamino / ethyl] | 110 µM | 71 µM |  |  |  | 
36 | Cc1n[nH]c2c(NC3CCC(N)CC3)ncnc12 (stereo not drawn) [4-aminocyclohexylamino / methyl] | 115 µM | 75 µM |  |  |  | 
37 | CCc1n[nH]c2c(Nc3ccc(Br)cc3)ncnc12 [4-bromoanilino / ethyl] |  |  |  |  | 22 µM | 18 µM
38 | Cc1n[nH]c2c(Nc3ccc(Br)cc3)ncnc12 [4-bromoanilino / methyl] |  |  |  |  | 16 µM | 18 µM
39 | CCc1n[nH]c2c(Nc3ccc(Cl)cc3)ncnc12 [4-chloroanilino / ethyl] |  |  |  |  | 14 µM | 16 µM
40 | Cc1n[nH]c2c(Nc3ccc(Cl)cc3)ncnc12 [4-chloroanilino / methyl] |  |  |  |  | 26 µM | 28 µM

Row | Structure (SMILES) | IC50 [1] | IC50 [2] | IC50 ([1]; Homo sapiens, K562, 72 h) | IC50 ([2]; Homo sapiens, MCF7, 72 h) | IC50 [3] | IC50 [4]
41 | CCc1n[nH]c2c(NCc3ccc(Cl)cc3)ncnc12 [4-chlorobenzylamino / ethyl] |  |  |  |  | 26 µM | 19 µM
42 | Cc1n[nH]c2c(NCc3ccc(Cl)cc3)ncnc12 [4-chlorobenzylamino / methyl] |  |  |  |  | 20 µM | 18 µM
43 | Cc1n[nH]c2c(NCc3ccc(O)cc3)ncnc12 [4-hydroxybenzylamino / methyl] | > 167 µM | > 167 µM |  |  |  | 
44 | CCc1n[nH]c2c(NCc3ccc(OC)cc3)ncnc12 [4-methoxybenzylamino / ethyl] | 48 µM | 31 µM |  |  |  | 
45 | COc1ccc(CNc2ncnc3c(C)n[nH]c23)cc1 [4-methoxybenzylamino / methyl] | 53 µM | 35 µM |  |  |  | 
46 | C=CCNc1ncnc2c(CC)n[nH]c12 [allylamino / ethyl] |  |  |  |  | 25 µM | 29 µM
47 | C=CCNc1ncnc2c(C)n[nH]c12 [allylamino / methyl] |  |  |  |  | 42 µM | 48 µM
48 | CCc1n[nH]c2c(Nc3ccccc3)ncnc12 [anilino / ethyl] |  |  |  |  | 14 µM | 20 µM
49 | Cc1n[nH]c2c(Nc3ccccc3)ncnc12 [anilino / methyl] |  |  |  |  | 22 µM | 21 µM
50 | Cc1n[nH]c2c(NCc3ccccc3)ncnc12 [benzylamino / methyl] | 29 µM | 67 µM |  |  |  | 
51 | CCc1n[nH]c2c(NC3CCCCC3)ncnc12 [cyclohexylamino / ethyl] |  |  |  |  | 39 µM | 42 µM
52 | Cc1n[nH]c2c(NC3CCCCC3)ncnc12 [cyclohexylamino / methyl] |  |  |  |  | 34 µM | 32 µM
53 | CCc1n[nH]c2c(NC3CCCC3)ncnc12 [cyclopentylamino / ethyl] |  |  |  |  | 32 µM | 32 µM
54 | Cc1n[nH]c2c(NC3CCCC3)ncnc12 [cyclopentylamino / methyl] |  |  |  |  | 29 µM | 46 µM
55 | CCc1n[nH]c2c(NCC=C(C)C)ncnc12 [isopentenylamino / ethyl] |  |  |  |  | 45 µM | 41 µM
56 | CC(C)=CCNc1ncnc2c(C)n[nH]c12 [isopentenylamino / methyl] |  |  |  |  | 45 µM | 44 µM
57 | CCCCCNc1ncnc2c(CC)n[nH]c12 [pentylamino / ethyl] | 62 µM | 41 µM |  |  |  | 
58 | CCCCCNc1ncnc2c(C)n[nH]c12 [pentylamino / methyl] | 67 µM | 45 µM |  |  |  | 
